Reference: patent US12583851B2, “Heteroaryl-substituted pyrazine derivatives as pesticides” (Elanco Animal Health GmbH, priority 2019, dated 2026)

Legend:
Assay type in all cases: in vivo
[1] = tested on: fall armyworm larvae (Spodoptera frugiperda); experiment: Spodoptera frugiperda spray test; conditions: 168 h, maize leaf sections, after 7 days
Method: Spodoptera fruaiperda—Spray Test
Solvent: 78.0 parts by weight acetone • 1.5 parts by weight dimethylformamide
(§1) Emulsifier: alkylarylpolyglycol ether
(§2) To produce a suitable preparation of active compound, 1 part by weight of active compound is mixed with the stated amount of solvents and is diluted with water, containing an emulsifier concentration of 1000 ppm, to the desired concentration. Further test concentrations are prepared by dilution with emulsifier containing water.
Maize (Zea mays) leaf sections are sprayed with a preparation of the active ingredient of the desired concentration. Once dry, the leaf sections are infested with fall armyworm larvae (Spodoptera frugiperda).
After 7 days mortality in % is determined. 100% means all caterpillars have been killed and 0% means none of the caterpillars have been killed.

[2] = tested on: larvae of the banded cucumber beetle (Diabrotica balteata); experiment: Diabrotica balteata spray test; conditions: 168 h, after 7 days, read-out: efficacy (seedling growth); for pest or weed control at 6.4 µg/disc, 20 g/ha: 20 g/ha (=6.4 μg/well); for pest or weed control at 32 µg/disc, 100 g/ha: 100 g/ha (=32 μg/well)
Method: Diabrotica balteata—Spray Test
Solvent: 78.0 parts by weight of acetone • • 1.5 parts by weight of dimethylformamide
as §1
as §2, with “solvent,” for “solvents”, “and the concentrate” for “and”
Soaked wheat seeds (Triticum aestivum) are placed in a multiple well plate filled with agar and some water and are incubated for 1 day to germinate (5 seeds per well). The germinated wheat seeds are sprayed with a test solution containing the desired concentration of the active ingredient. Afterwards each unit is infected with 10-20 larvae of the banded cucumber beetle (Diabrotica balteata).
After 7 days efficacy in % is determined. 100% means all the seedlings have grown up like in the untreated, uninfected control; 0% means none of the seedlings have grown.

[3] = tested on: Rhipicephalus (Boophilus) microplus larvae (strain Parkhurst, resistant against synthetic pyrethroids); experiment: Rhipicephalus (Boophilus) microplus in-vitro contact test, larval cattle tick; conditions: after 48 hours, read-out: efficacy (larvae dead or moribund); for pest or weed control at 1 µg/cm2, 100 g/ha: 1 μg/cm^2 (=100 g/ha); for pest or weed control at 5 µg/cm2, 500 g/ha: 5 μg/cm^2 (=500 g/ha)
Method: Rhipicephalus (Boophilus) microplus—In-Vitro Contact Tests Larval Cattle Tick (Strain Parkhurst, Resistant Against Synthetic Pyrethroids)
9 mg compound is solved in 1 mL acetone and diluted with acetone to the desired concentration. […] the test solution is filled in 25 mL glass test tubes and homogeneously distributed on the inner walls by rotation and tilting on a shaking device (2 h at 30 rpm). With a compound concentration of 900 ppm, an inner surface of 44.7 cm^2 and a homogeneous distribution, a dose of 5 μg/cm^2 is achieved.
After the solvent has evaporated, each test tube is filled with 20-50 cattle tick larvae (Rhipicephalus microplus), closed with a perforated lid and incubated in a horizontal position at 85% relative humidity and 27° C. in an incubator. After 48 hours efficacy is determined. The larvae are patted on the ground of the tubes and negative geotactic behaviour is recorded.
An efficacy of 100% means all larvae are dead or moribund; 0% means no larvae are dead or moribund.

Cc1cnc(-c2ncc(C(=O)N(C)CC3CC3)s2)c(C(C)NC(=O)c2cc(C(F)(F)F)cc(C(F)(F)F)c2)n1 (racemic) [Example I-73, (rac)-2-(3-{1-[3,5-Bis(trifluoromethyl)benzamido]ethyl}-5-methylpyrazin-2-yl)-N-(cyclopropylmethyl)-N-methyl-1,3-thiazole-5-carboxamide]
mortality at 100 g/ha [1]: 100%

CCN(C)C(=O)c1cnc(-c2ncc(C)nc2C(C)NC(=O)c2cc(C(F)(F)F)nc(C(F)(F)F)c2)s1 (racemic) [Example I-151, (rac)-N-[1-(3-{5-[Ethyl(methyl)carbamoyl]-1,3-thiazol-2-yl)-6-methylpyrazin-2-yl)ethyl]-2,6-bis(trifluoromethyl)pyridine-4-carboxamide]
mortality at 100 g/ha [1]: 100%

CC(NC(=O)c1cc(Cl)cc(OC(F)(F)F)c1)c1nccnc1-n1cc(C#N)cn1 (racemic) [Example I-104, (rac)-3-Chloro-N-{1-[3-(4-cyano-1H-pyrazol-1-yl)pyrazin-2-yl]ethyl}-5-(trifluoromethoxy)benzamide]
pest or weed control at 6.4 µg/disc, 20 g/ha [2]: 100% | pest or weed control at 32 µg/disc, 100 g/ha [2]: 100%

CC(NC(=O)c1cncc(C(C)(C)C)c1)c1nccnc1-c1nccs1 (racemic) [Example I-6, (rac)-5-(tert-Butyl)-N-(1-(3-(thiazol-2-yl)pyrazin-2-yl)ethyl)nicotinamide]
pest or weed control at 1 µg/cm2, 100 g/ha [3]: 80% | pest or weed control at 5 µg/cm2, 500 g/ha [3]: 80%

CCN(C)C(=O)c1cnc(-c2nc(C)cnc2C(C)NC(=O)c2cc(C(F)(F)F)cc(C(F)(F)F)c2)s1 (stereo in doubt) [Example I-157, (+)-2-(3-{(1S)-1-[3,5-bis(trifluoromethyl)benzamido]ethyl}-6-methylpyrazin-2-yl)-N-ethyl-N-methyl-1,3-thiazole-5-carboxamide]
mortality at 100 g/ha [1]: 100%

Cc1cnc(-c2ncc(C(=O)N3C[C@@H](C)O[C@@H](C)C3)s2)c(C(C)NC(=O)c2cc(C(F)(F)F)cc(C(F)(F)F)c2)n1 (mixture of isomers) [Example I-127, (rac)-N-[1-(3-{5-[cis-2,6-dimethylmorpholine-4-carbonyl]-1,3-thiazol-2-yl}-6-methylpyrazin-2-yl)ethyl]-3,5-bis(trifluoromethyl)benzamide]
pest or weed control at 1 µg/cm2, 100 g/ha [3]: 100% | pest or weed control at 5 µg/cm2, 500 g/ha [3]: 100%

CC(NC(=O)c1cc(C(F)(F)F)cc(C(F)(F)F)c1)c1nccnc1-c1ncc(C(=O)N2CCC[Si](C)(C)C2)s1 (racemic) [Example I-70, (rac)-N-[1-{3-[5-(3,3-Dimethyl-1,3-azasilinane-1-carbonyl)-1,3-thiazol-2-yl]pyrazin-2-yl}ethyl]-3,5-bis(trifluoromethyl)benzamide]
pest or weed control at 32 µg/disc, 100 g/ha [2]: 100%

CC(NC(=O)c1cc(C(F)(F)F)cc(C(F)(F)F)c1)c1nccnc1-c1ccc(C(F)(F)F)cn1 (racemic) [Example I-45, (rac)-3,5-Bis(trifluoromethyl)-N-[1-{3-[5-(trifluoromethyl)pyridin-2-yl]pyrazin-2-yl}ethyl]benzamide]
mortality at 100 g/ha [1]: 100%

CC(NC(=O)c1cc(Cl)cc(S(=O)(=O)C2CC2)c1)c1nccnc1-n1cc(C#N)cn1 (racemic) [Example I-101, (rac)-3-Chloro-N-{1-[3-(4-cyano-1H-pyrazol-1-yl)pyrazin-2-yl]ethyl}-5-(cyclopropanesulfonyl)benzamide]
mortality at 100 g/ha [1]: 100%

CC(NC(=O)c1cc(Cl)cc(Br)c1)c1nccnc1-c1ccc(C(F)(F)F)cn1 (racemic) [Example I-43, (rac)-3-Bromo-5-chloro-N-[1-{3-[5-(trifluoromethyl)pyridin-2-yl]pyrazin-2-yl}ethyl]benzamide]
pest or weed control at 32 µg/disc, 100 g/ha [2]: 80%

COc1ccc(-c2nccnc2C(C)NC(=O)c2cc(Cl)cc(C(F)(F)F)c2)nc1 (stereo not shown) [Example I-29]
pest or weed control at 5 µg/cm2, 500 g/ha [3]: 90% | pest or weed control at 6.4 µg/disc, 20 g/ha [2]: 100% | pest or weed control at 32 µg/disc, 100 g/ha [2]: 100%

CC(NC(=O)c1cc(Cl)cc(C#N)c1)c1nccnc1-c1ccc(C(F)(F)F)cn1 (racemic) [Example I-40, (rac)-3-Chloro-5-cyano-N-[1-{3-[5-(trifluoromethyl)pyridin-2-yl]pyrazin-2-yl}ethyl]benzamide]
pest or weed control at 32 µg/disc, 100 g/ha [2]: 100%

CC(NC(=O)c1cc(Cl)cc(C#N)c1)c1nccnc1-c1ccccn1 (stereo not shown) [Example I-18]
pest or weed control at 32 µg/disc, 100 g/ha [2]: 100%

CC(NC(=O)c1cc(C(F)(F)F)cc(C(F)(F)F)c1)c1nccnc1-n1cc(Cl)cn1 (racemic) [Example I-96, N-{(rac)-1-[3-(4-Chloro-1H-pyrazol-1-yl)pyrazin-2-yl]ethyl}-3,5-bis(trifluoromethyl)benzamide]
pest or weed control at 6.4 µg/disc, 20 g/ha [2]: 100% | pest or weed control at 32 µg/disc, 100 g/ha [2]: 100%

CC(NC(=O)c1cc(Cl)cc(C#N)c1)c1nccnc1-c1nccs1 (racemic) [Example I-57, (rac)-3-Chloro-5-cyano-N-{1-[3-(1,3-thiazol-2-yl)pyrazin-2-yl]ethyl}benzamide]
pest or weed control at 6.4 µg/disc, 20 g/ha [2]: 80%

Cc1cnc(C(C)NC(=O)c2cc(C(F)(F)F)cc(C(F)(F)F)c2)c(-c2ncc(C(=O)N3C[C@@H](C)O[C@@H](C)C3)s2)n1 (mixture of isomers) [Example I-126, (rac)-N-[1-(3-{5-[cis-2,6-Dimethylmorpholine-4-carbonyl]-1,3-thiazol-2-yl}-5-methylpyrazin-2-yl)ethyl]-3,5-bis(trifluoromethyl)benzamide]
pest or weed control at 1 µg/cm2, 100 g/ha [3]: 100% | pest or weed control at 5 µg/cm2, 500 g/ha [3]: 100% | pest or weed control at 32 µg/disc, 100 g/ha [2]: 100%

CC(NC(=O)c1cc(Br)cc(OC(F)(F)F)c1)c1nccnc1-c1ccc(C(F)(F)F)cn1 (racemic) [Example I-44, (rac)-3-Bromo-5-(trifluoromethoxy)-N-[1-{3-[5-(trifluoromethyl)pyridin-2-yl]pyrazin-2-yl}ethyl]benzamide]
pest or weed control at 32 µg/disc, 100 g/ha [2]: 100%

CC(NC(=O)c1cc(Br)cc(I)c1)c1nccnc1-n1cc(C#N)cn1 (racemic) [Example I-112, (rac)-3-Bromo-N-{1-[3-(4-cyano-1H-pyrazol-1-yl)pyrazin-2-yl]ethyl}-5-iodobenzamide]
pest or weed control at 32 µg/disc, 100 g/ha [2]: 100%

COc1ccc(-c2nccnc2C(C)NC(=O)c2cc(C(F)(F)F)cc(C(F)(F)F)c2)nc1 (stereo not shown) [Example I-26]
pest or weed control at 5 µg/cm2, 500 g/ha [3]: 90% | pest or weed control at 6.4 µg/disc, 20 g/ha [2]: 100% | pest or weed control at 32 µg/disc, 100 g/ha [2]: 100%

CC(NC(=O)c1cc(C(F)(F)F)cc(C(F)(F)F)c1)c1nccnc1-n1cc(C(=O)N2CCCC2)cn1 (racemic) [Example I-91, N-[(rac)-1-{3-[4-(Pyrrolidine-1-carbonyl)-1H-pyrazol-1-yl]pyrazin-2-yl}ethyl]-3,5-bis(trifluoromethyl)benzamide]
pest or weed control at 1 µg/cm2, 100 g/ha [3]: 100% | pest or weed control at 5 µg/cm2, 500 g/ha [3]: 100%

CC(NC(=O)c1cc(Cl)cc(C#N)c1)c1nccnc1-n1cc(C#N)cn1 (racemic) [Example I-121, (rac)-3-Chloro-5-cyano-N-{1-[3-(4-cyano-1H-pyrazol-1-yl)pyrazin-2-yl]ethyl}benzamide]
pest or weed control at 32 µg/disc, 100 g/ha [2]: 100%

CC(NC(=O)c1cc(C(F)(F)F)cc(C(F)(F)F)c1)c1nccnc1-c1ncc(C(=O)N2CCCC2)s1 (racemic) [Example I-71, (rac)-N-[1-{3-[5-(Pyrrolidine-1-carbonyl)-1,3-thiazol-2-yl]pyrazin-2-yl}ethyl]-3,5-bis(trifluoromethyl)benzamide]
pest or weed control at 6.4 µg/disc, 20 g/ha [2]: 100% | pest or weed control at 32 µg/disc, 100 g/ha [2]: 100%

CC(NC(=O)c1cc(Br)cc(OC(F)(F)F)c1)c1nccnc1-n1cc(Cl)cn1 (racemic) [Example I-97, (rac)-3-Bromo-N-{1-[3-(4-chloro-1H-pyrazol-1-yl)pyrazin-2-yl]ethyl}-5-(trifluoromethoxy)benzamide]
pest or weed control at 32 µg/disc, 100 g/ha [2]: 100%

CC(NC(=O)c1cc(C(F)(F)F)cc(C(F)(F)F)c1)c1nccnc1-c1ccc(C(=O)N2CCCC2)cn1 (racemic) [Example I-37, (rac)-N-[1-{3-[5-(Pyrrolidine-1-carbonyl)pyridin-2-yl]pyrazin-2-yl}ethyl]-3,5-bis(trifluoromethyl)benzamide]
pest or weed control at 1 µg/cm2, 100 g/ha [3]: 100% | pest or weed control at 5 µg/cm2, 500 g/ha [3]: 100%
